{"source": "paper PMC6274048", "about": "“Chemical Constituents of Malaysian U. cordata var. ferruginea and Their in Vitro α-Glucosidase Inhibitory Activities” (Molecules, 2016)", "target": "α-glucosidase enzyme (type 1 from Baker's yeast) (Saccharomyces cerevisiae, UniProt P53341)", "sequence (P53341 whole entry)": "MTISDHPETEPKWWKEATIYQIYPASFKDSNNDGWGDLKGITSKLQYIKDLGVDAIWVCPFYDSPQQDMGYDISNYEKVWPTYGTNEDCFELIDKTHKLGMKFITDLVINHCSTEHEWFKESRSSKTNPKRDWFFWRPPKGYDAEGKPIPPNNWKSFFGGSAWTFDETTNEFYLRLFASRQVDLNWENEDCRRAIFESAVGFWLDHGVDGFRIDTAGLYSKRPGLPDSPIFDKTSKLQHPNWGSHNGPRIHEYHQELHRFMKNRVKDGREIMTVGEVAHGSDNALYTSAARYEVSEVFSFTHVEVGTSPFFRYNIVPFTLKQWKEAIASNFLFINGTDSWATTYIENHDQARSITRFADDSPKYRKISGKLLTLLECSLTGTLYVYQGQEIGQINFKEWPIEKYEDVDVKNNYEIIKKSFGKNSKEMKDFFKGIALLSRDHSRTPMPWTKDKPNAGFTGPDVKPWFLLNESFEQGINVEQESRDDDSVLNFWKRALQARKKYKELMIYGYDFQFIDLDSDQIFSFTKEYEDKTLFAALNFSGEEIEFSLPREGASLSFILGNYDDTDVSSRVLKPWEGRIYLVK", "test": "α-Glucosidase inhibitory assay (p-nitrophenyl-α-D-glucopyranoside substrate, absorbance at 405 nm)", "format": "biochemical", "conditions": "for inhibition at 1000 µg/mL: Concentration: 1 mg/mL, Means ± SD, n = 3; for IC50: α-glucosidase inhibition", "experimental": "The method of α-glucosidase inhibitory assay was adopted from Ahmad et al. with minor modification. The plant samples (extract/fraction/compound) were prepared in 5% DMSO at a concentration of 1000 μg/mL. A series of dilutions for each sample were prepared to give concentrations of 1000, 500, 250, 125, 62.5 and 31.25 μg/mL. Then, about 10 μL of sample, 20 μL of α-glucosidase enzyme solution (type 1 from Baker’s yeast), phosphate buffer saline (40 μL at pH 6.5) and deionized water (20 μL) were mixed in a 96-well plate. The mixture was incubated at 37 °C. After 10 min, 10 μL of 20 mM p-nitrophenyl-α-D-glucopyranoside solution was added into the mixture and absorbance at time 0 min was measured by the spectrophotometer (λ = 405 nm). Then, the reaction mixture was incubated at 37 °C for 30 min and the absorbance was measured. […] Experiments were performed in triplicates with three independent experiments. The percentage inhibitory activity was calculated using the following equation: (1) Inhibition (%)=(A30 min–A0 min) control – (A30 min – A0 min) sample × 100/(A30 min–A0 min) control where A is the absorbance of mixture measured at 405 nm.", "note": "Read-outs that look alike come from different tables or passages of the source."}
{"smiles": "O=C(O)c1ccc(O)cc1O", "note": "[2,4-DHBA, 2,4-Dihydroxybenzoic acid]", "values": [{"measurement": "inhibition at 1000 µg/mL", "result": "78.8 ± 0.4", "unit": "%"}, {"measurement": "IC50", "setting": "dilution series 1000-31.25 μg/mL, read-out: IC50 (μg/mL) (converted)", "result": 3.56, "unit": "mM"}, {"measurement": "IC50", "setting": "same IC50 in molar units, read-out: IC50", "result": 3.56, "unit": "mM"}]}
{"smiles": "COc1cc2ccc(=O)oc2cc1O", "note": "[Scopoletin]", "values": [{"measurement": "inhibition at 1000 µg/mL", "result": "34.5 ± 0.4", "unit": "%"}]}
{"smiles": "COC(=O)C1=CO[C@@H](O[C@@H]2O[C@H](CO)[C@@H](O)[C@H](O)[C@H]2O)[C@@H]2[C@@H](C)[C@@H](O)C[C@H]12", "note": "[Loganin]", "values": [{"measurement": "inhibition at 1000 µg/mL", "result": "44.9 ± 0.7", "unit": "%"}]}
{"smiles": "C[C@H]1O[C@H](O[C@H]2[C@H](O)[C@@H](O)[C@@H](O[C@H]3[C@H](O)[C@@H](O)C(O)O[C@@H]3CO)O[C@@H]2CO)[C@H](O)[C@@H](O)[C@@H]1N[C@H]1C=C(CO)[C@@H](O)[C@H](O)[C@H]1O", "note": "(stereo partly shown) [Acarbose, reference compound]", "values": [{"measurement": "inhibition at 1000 µg/mL", "result": "90.9 ± 2.7", "unit": "%"}]}
{"smiles": "O=c1c(O)c(-c2ccc(O)c(O)c2)oc2cc(O)cc(O)c12", "note": "[Quercetin]", "values": [{"measurement": "inhibition at 1000 µg/mL", "result": "84.5 ± 0.6", "unit": "%"}]}
